This is an account of results in patent publication US20060115440A1, “Silver dihydrogen citrate compositions” (priority 2004, published 2006).

Structures are written as SMILES. Like-named read-outs stand apart in the source and are kept apart here.

Data set [1] has as its system several varieties of bacteria. From the text: (§1) In the Table 57, test solutions contained 100 ppm Ag^+ in 5% citric acid solution at pH 7.0 (adjusted with NaOH).
(§2) In the Table 58, test solutions contained 100 ppm Ag^+ in water at pH 7.0 (adjusted with NaOH).

The subject of data set [2] is Trichophyton mentagrophytes (ATCC 9533). The settings on record: test solutions 100 ppm Ag^+ in water at pH 7.0 (adjusted with NaOH).
Source text: as §2

Data set [3] deals with Malessezia furfur (DSM 6171). The note with it: test solutions 100 ppm Ag^+ in water at pH 7.0 (adjusted with NaOH).
Source text: as §2

Data set [4] has as its system Corynebacterium minutissimum (ATCC 23348). The settings on record: test solutions 100 ppm Ag^+ in water at pH 7.0 (adjusted with NaOH).
Source text: as §2

The subject of data set [5] is Trichophyton rubrum (ATCC 10218). The settings on record: test solutions 100 ppm Ag^+ in water at pH 7.0 (adjusted with NaOH).
Source text: as §2

Data set [6] has as its system Chaetomium globosum (ATCC 6205). The settings on record: test solutions 100 ppm Ag^+ in water at pH 7.0 (adjusted with NaOH).
Source text: as §2

The subject of data set [7] is Candida albicans (ATCC 10231). The note with it: test solutions 100 ppm Ag^+ in water at pH 7.0 (adjusted with NaOH).
Source text: as §2

The test system of data set [8] is Epidermophyton floccosum DSM 10709. The settings on record: test solutions 100 ppm Ag^+ in water at pH 7.0 (adjusted with NaOH).
Source text: as §2

Data set [9] relates to Propionibacterium acnes (ATCC 6919). The note with it: test solutions 100 ppm Ag^+ in water at pH 7.0 (adjusted with NaOH).
Source text: as §2

Data set [10] concerns Staphylococcus aureus (ATCC 6538). The settings on record: test solutions contained 100 ppm Ag^+ in 5% citric acid solution at pH 7.0 (adjusted with NaOH).
Source text: as §1

For data set [11], the system named is Pseudomonas aeruginosa (ATCC 15442). The settings on record: test solutions contained 100 ppm Ag^+ in 5% citric acid solution at pH 7.0 (adjusted with NaOH).
Source text: as §1

Data set [12] deals with Corynebacterium xerosis (ATCC 373).
Source text: as §1

Data set [13] concerns Escherichia coli (ATCC 10536). The note with it: test solutions contained 100 ppm Ag^+ in 5% citric acid solution at pH 7.0 (adjusted with NaOH).
Source text: as §1

For data set [14], the system named is bacteria, fungi and viruses.
For data set [15] the following is noted: in a mixture of anion, non-ionic and amphoteric surfactants.

With `O=C(O)CC(O)(CC(=O)O)C(=O)[O-].[Ag+]` [Silver dihydrogen citrate, silver dihydrogen citrate], the “effect on several varieties of bacteria (in words)” value in data set [1] is listed as “bacteriostatic”. For the same molecule, the “Minimum Inhibitory Concentration (MIC)” value is reported as 12-24 μg/ml Ag^+ in [2]; 6.0 μg/ml Ag^+ in data set [3]; 3.0 μg/ml Ag^+ in [4]; 12-48 μg/ml Ag^+ in data set [5]; 12-24 μg/ml Ag^+ in [6]; 3.0 μg/ml Ag^+ in [7]. Also, the “Minimum Inhibitory Concentration (MIC)” value in data set [8] is reported as 12-48 μg/ml Ag^+; in [9] it was 6.0 μg/ml Ag^+; in [10], 4.0 μg/ml μg/ml Ag^+; in data set [11] it was 4.0 μg/ml Ag^+; in data set [12] (Corynebacterium xerosis (ATCC 373), test solutions 100 ppm Ag^+ in water at pH 7.0 (adjusted with NaOH)), 3.0 μg/ml Ag^+; in data set [12] (test solutions contained 100 ppm Ag^+ in 5% citric acid solution at pH 7.0 (adjusted with NaOH)), 2.0 μg/ml Ag^+. In [13], the “Minimum Inhibitory Concentration (MIC)” value was found to be 2.0 μg/ml Ag^+. Also, the “antimicrobial activity (in words)” value in [14] is on record as “antimicrobial activity against a variety of microbes”. In addition, in data set [15], the “time-wise stability of the antimicrobial activity” value was “stable and showed good preservation”.
